From patent US10874743B2, “IRAK degraders and uses thereof” (Kymera Therapeutics, Inc., priority 2017, dated 2020) come the findings set out here.

What all share (assay type): cell-based
Experiment [1] concerns the target T1, IRAK4 (Homo sapiens, UniProt Q9NWZ3).
T1 sequence (Q9NWZ3 1-460): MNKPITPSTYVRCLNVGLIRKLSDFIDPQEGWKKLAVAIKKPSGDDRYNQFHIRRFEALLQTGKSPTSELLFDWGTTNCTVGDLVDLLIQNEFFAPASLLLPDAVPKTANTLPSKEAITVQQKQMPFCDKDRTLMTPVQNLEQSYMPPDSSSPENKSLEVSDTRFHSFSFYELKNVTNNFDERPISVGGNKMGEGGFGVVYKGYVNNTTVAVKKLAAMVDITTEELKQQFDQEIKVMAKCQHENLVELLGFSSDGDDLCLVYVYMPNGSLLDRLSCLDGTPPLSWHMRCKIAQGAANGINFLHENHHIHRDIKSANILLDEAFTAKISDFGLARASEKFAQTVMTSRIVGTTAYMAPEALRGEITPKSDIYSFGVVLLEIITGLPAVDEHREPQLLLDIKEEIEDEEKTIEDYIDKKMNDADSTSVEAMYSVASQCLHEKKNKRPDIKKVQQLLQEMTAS
Description: THP-1 degradation assay (western blot, % IRAK4 degraded after 24 hours). Set-up: endogenous in cells. The conditions noted are these: THP-1 cells. As for the experimental part: Compounds were reconstituted in DMSO to make stock solutions at concentration of 60 mM. THP-1 and OCI-LY10 cells were maintained in RPMI-1640 medium containing 10% FBS, 0.5 μM 2-ME or 20% FBS, 55 μM 2-ME, and 1% L-Glutamine respectively.
Cells were seeded into 6-well plates with 5e6 cells per well. 200 μL of diluted compounds were added to cells to the final concentration of 0.003-10 μM. After 4 or 24 hour-incubation at 37° C., cells were collected into 2 mL Eppendorf tubes and centrifuged at 1,000 rpm for 5 min. The cell pellets were washed with 1×DPBS once and resuspended in 60 μL lysis buffer. The cells were lysed on ice for 10 min, then centrifuged at 14,000 rpm for 10 min at 4° C. and the supernatants were collected for western blots. For THP-1 cells, the lysis buffer contained 40 mM pH 7.4 HEPES, 140 mM NaCl, 2.5 mM EDTA, 1% NP-40, 0.1% SDS, and protease inhibitor cocktail (Roche, Cat. No. 05892791001). For OCI-LY10 cells, RIPAbuffer (Thermo Fisher, 89900) with Halt Protease and Phosphatase Inhibitor Cocktail (Thermo Fisher, 78446) was applied.
The protein concentration of cell lysates was quantified with Pierce™ BCA Protein Assay Kit (Pierce, 23227). Albumin standards at different concentrations were prepared, involving 2,000 ug/mL, 1,500 ug/mL, 1,000 ug/mL, 750 ug/mL, 500 ug/mL, 250 ug/mL, 125 ug/mL, and 25 ug/mL. BCA working reagents were prepared by mixing BCA reagent A with reagent B in 50:1 ratio. 200 μL of the BCA working reagents were added to 25 μL of BCA standard or cell lysates in microplate, and mixed thoroughly on a plate shaker for 30 seconds. After incubation at 37° C. for 30 min, the absorbance of samples at 562 nm were measured with EnVision Plate Reader.
Protein lysates were prepared in NuPAGE™ LDS sample buffer and NuPAGE™ sample reducing agent, and incubated at 95° C. for 5 min. For western blots, 20-25 μg of total proteins were resolved in 4-12% Bis-Tris gels (Introgen, WG1403A) or 10% Bis-Tris Midi gels (Invitrogen, WG1202BOX) running with 1×MOPS SDS running buffer (Invitrogen, NP0001) or 1×MES SDS running buffer (Invitrogen, NP0002). The proteins were transferred to low fluorescence PVDF membranes using the Trans-Blot Turbo Transfer System. Membranes were then blocked in Odyssey blocking buffer at RT for 1 h followed by primary incubation at 4° C. overnight. The primary antibodies were IRAK1 rabbit monoclonal antibody (CST, #4504S, 1:500), IRAK3 rabbit polyclonal antibody (CST, #4369, 1:500), IRAK4 rabbit polyclonal antibody (CST, #4363S, 1:1,000), MyD88 rabbit monoclonal antibody (Abcam, Ab133739, 1:2,000), j3-actin mouse monoclonal antibody (Sigma, A5441, 10,000), and Gapdh mouse monoclonal antibody (Millipore, MAB374, 1:5,000). Membranes were washed three times with 1×TBST, and then incubated with IR Dye 800 CW Goat anti-rabbit (Licor, #926-32211) and IR Dye 700 CW Goat anti-mouse (Licor, #926-68070) secondary antibodies in 1:10,000 dilution at RT for 1 h. The western blot images were obtained using Odyssey Imaging System.
THP-1 results at 24 hours. The letter codes indicate the percentage of IRAK4 degraded after 24 hours: A (>50% degradation), B (>20-50% degradation) and C (<20% degradation)

Experiment [2] addresses T1, IRAK4. Description: OCI-LY-10 MSD assay for IRAK4 DC50. The arrangement: endogenous in cells; host or cells: OCI-LY10. The conditions noted are these: OCI-LY10 cells, 4 hr incubation, concentration required to degrade 50% of protein. The gist of the method:
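OCI-Ly10 cells were exposed to compound for 4 hr across a 3-fold, 8-point dilution series. Lysates were made in RIPA buffer, and IRAK4 remaining was measured by MSD sandwich immunoassay with anti-IRAK4 capture and detection antibodies. DC50 was taken from a four-parameter logistic fit.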

The test system of another experiment is OCI-LY10 cells. Nature of the experiment: OCI-LY-10 CTG cell viability assay (EC50). The conditions noted are these: Homo sapiens, 96 h, CellTiter-Glo cell viability, 4 days incubation, top concentration 10 μM, read-out: OCI-LY10 IRAK4 EC50. The gist of the method: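 OCI-LY10 cells were exposed to a 9-dose, 1:3 series (top 10 μM, 0.2% DMSO) for 4 days at 37 °C. Viability was measured by CellTiter-Glo luminescence, and EC50 came from a three-parameter logistic fit.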

Consider `COc1cc(Nc2nc(N[C@H]3CCCC[C@H]3N)n3ccnc3c2C(N)=O)cc(OCCOCCOCCOCC(=O)N[C@H](C(=O)N2C[C@H](O)C[C@H]2C(=O)NCc2ccc(-c3scnc3C)cc2)C(C)(C)C)c1` [I-162, 5-[[(1S,2R)-2-aminocyclohexyl]amino]-7-[3-[2-[2-[2-[2-[[(1S)-1-[(2S,4R)-4-hydroxy-2-[[4-(4-methylthiazol-5-yl)phenyl]methylcarbamoyl]pyrrolidine-1-carbonyl]-2,2-dimethyl-propyl]amino]-2-oxo-ethoxy]ethoxy]ethoxy]ethoxy]-5-methoxy-anilino]imidazo[1,2-c]pyrimidine-8-carboxamide], for which the “THP-1 24 h % IRAK4 Degradation” value at IRAK4 [1] is recorded as “A (>50% degradation)”.
Still for that read-out and setting: under `O=C1CCC(N2C(=O)c3cccc(NCCOCCOCCOCC(F)CNC(=O)c4cnc(Nc5ccc6cnccc6n5)cc4NC4CC4)c3C2=O)C(=O)N1` (centres unmarked) [I-49] stands “B (>20-50% degradation)”; under `O=C(COc1cccc2c1C(=O)N(C1CCC(=O)NC1=O)C2=O)NCCOCCNC(=O)[C@H]1CC[C@H](NC(=O)c2cnc(Nc3ccc4cnccc4n3)cc2NC2CC2)CC1` (some centres unmarked) [I-6], “B (>20-50% degradation)”; under `O=C(COc1cccc2c1C(=O)N(C1CCC(=O)NC1=O)C2=O)NCCNC(=O)[C@H]1CC[C@H](NC(=O)c2cnc(Nc3ccc4cnccc4n3)cc2NC2CC2)CC1` (some centres unmarked) [I-8], “C (<20% degradation)”.
Regarding `O=C1CCC(N2C(=O)c3cccc(NCCOCCOCCOCCOCCOCCOCC(F)CNC(=O)c4cnc(Nc5ccc6cnccc6n5)cc4NC4CC4)c3C2=O)C(=O)N1` (centres unmarked) [I-51], the “THP-1 24 h % IRAK4 Degradation” value at IRAK4 [1] is given as “C (<20% degradation)”.
For the compound `O=C(COc1cccc2c1C(=O)N(C1CCC(=O)NC1=O)C2=O)NCCOCCOCC(F)CNC(=O)c1cnc(Nc2ccc3cnccc3n2)cc1NC1CC1` (centres unmarked) [I-99], the “THP-1 24 h % IRAK4 Degradation” value at IRAK4 [1] is “C (<20% degradation)”.
On the same count and under the same terms, under `CN(CCOCCOCCNc1cccc2c1C(=O)N(C1CCC(=O)NC1=O)C2=O)C(=O)[C@H]1CC[C@H](NC(=O)c2cnc(Nc3ccc4cnccc4n3)cc2NC2CC2)CC1` (stereo partly drawn) [I-40, 6-((1,6-naphthyridin-2-yl)amino)-4-(cyclopropylamino)-N-((1R,4R)-4-((2-(2-(2-((2-(2,6-dioxopiperidin-3-yl)-1,3-dioxoisoindolin-4-yl)amino)ethoxy)ethoxy)ethyl)(methyl)carbamoyl)cyclohexyl)nicotinamide] stands “C (<20% degradation)”.
As for `O=C(COc1cccc2c1C(=O)N(C1CCC(=O)NC1=O)C2=O)NCCOCCOCCOCCNC(=O)[C@H]1CC[C@H](NC(=O)c2cnc(Nc3ccc4cnccc4n3)cc2NC2CC2)CC1` (some centres unmarked) [I-2], at IRAK4 [1], the “THP-1 24 h % IRAK4 Degradation” value is listed as “C (<20% degradation)”.
The term DC50 denotes the concentration giving 50% degradation. The term EC50 denotes the midpoint of the concentration-response curve. As to `CN[C@@H](C)C(=O)N[C@H](C(=O)N1CCC[C@H]1c1nc(C(=O)c2cccc(OCCOCCOCCOCCOCCOCCNCc3ccc(-n4cc(NC(=O)c5coc(-c6ccnc(NCC7CC7)c6)n5)c(C(F)F)n4)cc3)c2)cs1)C1CCCCC1` [I-553], the DC50 on IRAK4 [2] is 500 to 1000 nM. The EC50 in the experiment with OCI-LY10 cells was > 1000 nM.
The matching figures for `CN(C[C@H]1CN(CCCc2ccc3c(c2)n(C)c(=O)n3C2CCC(=O)NC2=O)CCO1)C(=O)c1ccc(-n2cc(NC(=O)c3coc(-c4ccnc(NCC(F)(F)F)c4)n3)c(C(F)F)n2)cc1` (some centres unmarked) [I-487]: < 50 nM and 50 to 100 nM.
In the case of `Cn1c(=O)n(C2CCC(=O)NC2=O)c2cccc(CCCN3CCO[C@H](CNCc4ccc(-n5cc(NC(=O)c6coc(-c7ccnc(NCC(F)(F)F)c7)n6)c(C(N)=O)n5)cc4)C3)c21` (some centres unmarked) [I-593], on IRAK4 [2], the DC50 was < 50 nM. In addition, the EC50 with OCI-LY10 cells fell in the range of 100 to 500 nM.
The matching figures for `Cn1c(=O)n(C2CCC(=O)NC2=O)c2cccc(CCCOCCNCc3ccc(-n4cc(NC(=O)c5coc(-c6ccnc(NCC7CC7)c6)n5)c(C(F)F)n4)cc3)c21` (centres unmarked) [I-530]: < 50 nM and < 50 nM.
The matching figures for `CN[C@@H](C)C(=O)N[C@H](C(=O)N1Cc2cc(OCCOCCOCCOCCOCCOCCNC(=O)c3ccc(-n4cc(NC(=O)c5coc(-c6ccnc(NCC7CC7)c6)n5)c(C(F)F)n4)cc3)ccc2C[C@H]1C(=O)N[C@@H]1CCCc2ccccc21)C(C)(C)C` [I-520, 2-[2-(Cyclopropylmethylamino)-4-pyridyl]-N-[3-(difluoromethyl)-1-[4-[2-[2-[2-[2-[2-[2-[[(3S)-2-[(2S)-3,3-dimethyl-2-[[(2S)-2-(methylamino)propanoyl]amino]butanoyl]-3-[[(1R)-tetralin-1-yl]carbamoyl]-3,4-dihydro-1H-isoquinolin-7-yl]oxy]ethoxy]ethoxy]ethoxy]ethoxy]ethoxy]ethylcarbamoyl]phenyl]-pyrazol-4-yl]oxazole-4-carboxamide]: 500 to 1000 nM and > 1000 nM.
The like results for `Cn1cc(NC(=O)c2coc(-c3ccnc(NCC(F)(F)F)c3)n2)c(-c2cncc(C(=O)NCCOCCOCCCc3cccc4c3n(C)c(=O)n4C3CCC(=O)NC3=O)c2)n1` (centres unmarked) [I-472] were, in that order, > 1000 nM and > 1000 nM.
With `CN(C[C@@H]1CN(CCCc2ccc3c(c2)n(C)c(=O)n3C2CCC(=O)NC2=O)CCO1)C(=O)c1ccc(-n2cc(NC(=O)c3coc(-c4ccnc(NCC5CC5)c4)n3)c(C(F)F)n2)cc1` (some centres unmarked) [I-488], the DC50 on IRAK4 [2] is < 50 nM. In addition, the EC50 in the experiment with OCI-LY10 cells was < 50 nM.
As for `O=C1CCC(n2c(=O)oc3cc(CCCOCCCNCc4ccc(-n5cc(NC(=O)c6coc(-c7ccnc(NCC8CC8)c7)n6)c(C(F)F)n5)cc4)ccc32)C(=O)N1` (centres unmarked) [I-549], the DC50 on IRAK4 [2] was < 50 nM. In the experiment with OCI-LY10 cells, the EC50 was < 50 nM.
As to `Cn1c(=O)n(C2CCC(=O)NC2=O)c2cccc(CCCN3CCO[C@H](CNCc4ccc(-n5cc(NC(=O)c6coc(-c7ccnc(NCC8CC8)c7)n6)c(C(F)F)n5)cc4)C3)c21` (some centres unmarked) [I-587], the DC50 on IRAK4 [2] is < 50 nM. Moreover, the EC50 in the experiment with OCI-LY10 cells is < 50 nM.
As for `NC(=O)c1nn(-c2ccc(CNCCCOCCCc3ccc4c(c3)oc(=O)n4C3CCC(=O)NC3=O)cc2)cc1NC(=O)c1coc(-c2ccnc(NCC(F)(F)F)c2)n1` (centres unmarked) [I-567], at IRAK4 [2], the DC50 was < 50 nM. In the experiment on OCI-LY10 cells, the EC50 is 500 to 1000 nM.
The like results for `CN1CCN(C(=O)c2nn(-c3ccc(CNCCCCOCCCCc4ccc5c(c4)n(C)c(=O)n5C4CCC(=O)NC4=O)cc3)cc2NC(=O)c2coc(-c3ccnc(NCC(F)(F)F)c3)n2)CC1` (centres unmarked) [I-559] were, in that order, > 1000 nM and 500 to 1000 nM.
Turning to `O=C1CCC(n2c(=O)oc3c(CCCOCCCNC(=O)c4ccc(-n5cc(NC(=O)c6coc(-c7ccnc(NCC8CC8)c7)n6)c(C(F)F)n5)cn4)cccc32)C(=O)N1` (centres unmarked) [I-479], on IRAK4 [2], the DC50 is < 50 nM. Further, the EC50 in the experiment with OCI-LY10 cells was < 50 nM.
